We go through three molecules from patent publication US20240151711A1, “ADJUVANT FOR VACCINE DEVELOPMENT” (priority 2021, published 2024).

For one experiment, the system named is tumor. The settings on record: intra-tumoral administration; cited from earlier work.
The subject of experiment [1] is BMDCs derived from wild-type mice or Sting knockout mice. The experiment in a line: Identification of key adjuvant component in mRNA vaccine (EDOPC replaced with DOTAP). The settings on record: Vehicle or MVP prepared with EDOPC or DOTAP; FIG. 22. It is filed as cell-based, mouse. The text has this: In order to determine the role of the charged lipid (i.e., EDOPC), positively charged 1,2-dioleoyl-3-trimethylammonium-propane (DOTAP) was used to replace EDOPC to prepare vehicle and mRNA vaccine. The resulting vehicle (Vehicle with DOTAP) and mRNA vaccine (MVP with DOTAP) were applied to compare with the parental vehicle (Vehicle with EDOPC) and mRNA vaccine (MVP with EDOPC) on stimulation of cytokine expression after BMDC treatment.

A further experiment has as its system BMDCs. The experiment can be described thus: Stimulation of cytokine production by mRNA vaccine in BMDCs (ELISA). Format: cell-based, mouse. The settings on record: 24 hours; FIG. 20. The procedure:
GM-CSF/IL4-induced BMDCs were seeded into 24-well plates at a seeding density of 5×10^5 cells/well, and treated with PBS control, the TLR7 agonist imiquimod, mRNA-free vehicle control, mRNA core control, or mRNA vaccine (MVP) for 24 hours. Cell growth media were collected and IFN-b and TNF-α levels were measured with ELISA assay (FIG. 20). To determine pathways that play important roles on stimulation of cytokine production, BMDCs were induced from bone marrow cells collected from wild-type mice, Sting knockout mice, and Tlr7 knockout mice. Cells were treated with PBS control, mRNA-free vehicle control, mRNA core control, or mRNA vaccine (MVP) for 24 hours, and cell growth media were collected 24 hours later for measurement of cytokine levels.
On the technique in general: In an ELISA, binding on a coated surface is turned into a signal by an enzyme label.

Consider `Cc1ccc2c(=O)c3cccc(CC(=O)O)c3oc2c1C` [DMXAA, 5,6-dimethylxanthenone-4-acetic acid], for which the antitumor immunity result in the experiment on tumor is “strong antitumor immunity”. Take `CCCCCCCC/C=C\CCCCCCCC(=O)OC[C@@H](COP(=O)(OCC)OCC[N+](C)(C)C)OC(=O)CCCCCCC/C=C\CCCCCCCC` (stereo partly shown) [EDOPC, 1,2-dioleoyl-sn-glycero-3-ethylphosphocholine]: the “IFN-β level in growth media” value in experiment [1] was “essential for STING-dependent stimulation”. Turning to `CC(C)Cn1cnc2c(N)nc3ccccc3c21` [imiquimod], in the experiment with BMDCs, the “IFN-β level in growth media” value is given as “same as potent in stimulating IFN-β expression” and the “TNF-α level in growth media” value was “same as potent in stimulating TNF-α expression”.
